Test results taken from patent US10487093B2, “Heterocyclic compounds, in particular 2-oxo-4,4,5,5,6,6,7,7-octahydrobenzoxazole derivatives, and their use as antibacterial compounds” (priority 2016, dated 2019).
Converted amounts (≈) assume the structure as drawn. Like-named read-outs stand apart in the source and are kept apart here.

Legend:
Type in all cases: cell-based
[1] = system: Clostridium difficile ATCC 700057; test: MIC against anaerobes, agar dilution (CLSI), reference strain; settings: Clostridioides difficile, ATCC700057, 48 h, read-out: MIC, C. difficile ATCC 700057
[2] = system: Bacteroides fragilis ATCC 25285; test: as above; settings: ATCC25285, agar dilution, Brucella blood agar, 35° C., 48 h, anaerobic conditions, read-out: MIC, B. fragilis ATCC 25285
[3] = system: Bacteroides thetaiotaomicron ATCC 29741; test: microbe, parasite or virus in culture; settings: ATCC29741, 48 h, read-out: MIC, B. thetaiotaomicron ATCC
[4] = system: strains of Clostridium perfringens; test: microbe, parasite or virus in culture
[5] = system: strains of Finegoldia magna; test: MIC against anaerobes, agar dilution (CLSI), clinical isolates; settings: Finegoldia magna, read-out: MIC
[6] = system: strains of Parvimonas micra; test: as above
[7] = system: strains of Peptoniphilus harei; test: as above; settings: Peptoniphilus harei, read-out: MIC
[8] = system: strains of Peptostreptococcus anaerobius; test: as above
[9] = system: strains of Propionibacterium acnes; test: as above; settings: Cutibacterium acnes
[10] = system: strains of Bacteroides fragilis; test: as above
[11] = system: strains of Bacteroides thetaiotaomicron; test: microbe, parasite or virus in culture
[12] = system: strains of Prevotella bivia; test: MIC against anaerobes, agar dilution (CLSI), clinical isolates
[13] = system: strains of Prevotella melaninogenica; test: as above

Cc1ncc([N+](=O)[O-])n1CCO [MTZ, metronidazole, reference compound]
MIC [1]: < 1 µg/mL | MIC [2]: < 1 µg/mL | MIC [3]: 1 to 4 µg/mL (≈ 5.84 to 23.4 µM) | MIC ([4]; Clostridium perfringens strain 1): 1 to 4 µg/mL (≈ 5.84 to 23.4 µM) | MIC ([4]; Clostridium perfringens strain 2): < 1 µg/mL | MIC ([4]; Clostridium perfringens strain 3): < 1 µg/mL | MIC ([4]; Clostridium perfringens strain 4): < 1 µg/mL | MIC ([4]; Clostridium perfringens strain 5): < 1 µg/mL | MIC ([4]; Clostridium perfringens strain 6): 1 to 4 µg/mL (≈ 5.84 to 23.4 µM) | MIC ([4]; Clostridium perfringens strain 7): < 1 µg/mL | MIC ([4]; Clostridium perfringens strain 8): < 1 µg/mL | MIC ([4]; Clostridium perfringens strain 9): < 1 µg/mL | MIC ([4]; Clostridium perfringens strain 10): < 1 µg/mL | MIC ([4]; Clostridium perfringens strain 11): 1 to 4 µg/mL (≈ 5.84 to 23.4 µM) | MIC ([5]; Finegoldia magna strain 1): < 1 µg/mL | MIC ([5]; Finegoldia magna strain 2): < 1 µg/mL | MIC ([5]; Finegoldia magna strain 3): 1 to 4 µg/mL (≈ 5.84 to 23.4 µM) | MIC ([5]; Finegoldia magna strain 4): < 1 µg/mL | MIC ([5]; Finegoldia magna strain 5): 1 to 4 µg/mL (≈ 5.84 to 23.4 µM) | MIC ([5]; Finegoldia magna strain 6): 1 to 4 µg/mL (≈ 5.84 to 23.4 µM) | MIC ([5]; Finegoldia magna strain 7): 1 to 4 µg/mL (≈ 5.84 to 23.4 µM) | MIC ([5]; Finegoldia magna strain 8): 1 to 4 µg/mL (≈ 5.84 to 23.4 µM) | MIC ([5]; Finegoldia magna strain 9): 1 to 4 µg/mL (≈ 5.84 to 23.4 µM) | MIC ([5]; Finegoldia magna strain 10): 1 to 4 µg/mL (≈ 5.84 to 23.4 µM) | MIC ([5]; Finegoldia magna strain 11): 1 to 4 µg/mL (≈ 5.84 to 23.4 µM) | MIC ([5]; Finegoldia magna strain 12): < 1 µg/mL | MIC ([6]; Parvimonas micra strain 1): 1 to 4 µg/mL (≈ 5.84 to 23.4 µM) | MIC ([6]; Parvimonas micra strain 2): < 1 µg/mL | MIC ([6]; Parvimonas micra strain 3): < 1 µg/mL | MIC ([6]; Parvimonas micra strain 4): < 1 µg/mL | MIC ([6]; Parvimonas micra strain 5): < 1 µg/mL | MIC ([6]; Parvimonas micra strain 6): < 1 µg/mL | MIC ([6]; Parvimonas micra strain 7): < 1 µg/mL | MIC ([6]; Parvimonas micra strain 8): < 1 µg/mL | MIC ([6]; Parvimonas micra strain 9): < 1 µg/mL | MIC ([6]; Parvimonas micra strain 10): 1 to 4 µg/mL (≈ 5.84 to 23.4 µM) | MIC ([6]; Parvimonas micra strain 11): < 1 µg/mL | MIC ([6]; Parvimonas micra strain 12): < 1 µg/mL | MIC ([7]; Peptoniphilus harei strain 1): 1 to 4 µg/mL (≈ 5.84 to 23.4 µM) | MIC ([7]; Peptoniphilus harei strain 2): < 1 µg/mL | MIC ([7]; Peptoniphilus harei strain 3): < 1 µg/mL | MIC ([7]; Peptoniphilus harei strain 4): 1 to 4 µg/mL (≈ 5.84 to 23.4 µM) | MIC ([7]; Peptoniphilus harei strain 5): < 1 µg/mL | MIC ([7]; Peptoniphilus harei strain 6): < 1 µg/mL | MIC ([7]; Peptoniphilus harei strain 7): < 1 µg/mL | MIC ([7]; Peptoniphilus harei strain 8): < 1 µg/mL | MIC ([7]; Peptoniphilus harei strain 9): 1 to 4 µg/mL (≈ 5.84 to 23.4 µM) | MIC ([7]; Peptoniphilus harei strain 10): < 1 µg/mL | MIC ([7]; Peptoniphilus harei strain 11): < 1 µg/mL | MIC ([7]; Peptoniphilus harei strain 12): 1 to 4 µg/mL (≈ 5.84 to 23.4 µM) | MIC ([8]; Peptostreptococcus anaerobius strain 1): < 1 µg/mL | MIC ([8]; Peptostreptococcus anaerobius strain 2): < 1 µg/mL | MIC ([8]; Peptostreptococcus anaerobius strain 3): < 1 µg/mL | MIC ([8]; Peptostreptococcus anaerobius strain 4): < 1 µg/mL | MIC ([8]; Peptostreptococcus anaerobius strain 5): < 1 µg/mL | MIC ([8]; Peptostreptococcus anaerobius strain 6): < 1 µg/mL | MIC ([8]; Peptostreptococcus anaerobius strain 7): < 1 µg/mL | MIC ([8]; Peptostreptococcus anaerobius strain 8): < 1 µg/mL | MIC ([8]; Peptostreptococcus anaerobius strain 9): < 1 µg/mL | MIC ([8]; Peptostreptococcus anaerobius strain 10): < 1 µg/mL | MIC ([9]; Propionibacterium acnes strain 1): 16 to 64 µg/mL (≈ 93.5 to 374 µM) | MIC ([9]; Propionibacterium acnes strain 2): 16 to 64 µg/mL (≈ 93.5 to 374 µM) | MIC ([9]; Propionibacterium acnes strain 3): 16 to 64 µg/mL (≈ 93.5 to 374 µM) | MIC ([9]; Propionibacterium acnes strain 4): 16 to 64 µg/mL (≈ 93.5 to 374 µM) | MIC ([9]; Propionibacterium acnes strain 5): 16 to 64 µg/mL (≈ 93.5 to 374 µM) | MIC ([9]; Propionibacterium acnes strain 6): 16 to 64 µg/mL (≈ 93.5 to 374 µM) | MIC ([9]; Propionibacterium acnes strain 7): 16 to 64 µg/mL (≈ 93.5 to 374 µM) | MIC ([9]; Propionibacterium acnes strain 8): 16 to 64 µg/mL (≈ 93.5 to 374 µM) | MIC ([9]; Propionibacterium acnes strain 9): 16 to 64 µg/mL (≈ 93.5 to 374 µM) | MIC ([9]; Propionibacterium acnes strain 10): 16 to 64 µg/mL (≈ 93.5 to 374 µM) | MIC ([9]; Propionibacterium acnes strain 11): 16 to 64 µg/mL (≈ 93.5 to 374 µM) | MIC ([9]; Propionibacterium acnes strain 12): 16 to 64 µg/mL (≈ 93.5 to 374 µM) | MIC ([10]; Bacteroides fragilis strain 1): < 1 µg/mL | MIC ([10]; Bacteroides fragilis strain 2): < 1 µg/mL | MIC ([10]; Bacteroides fragilis strain 3): < 1 µg/mL | MIC ([10]; Bacteroides fragilis strain 4): < 1 µg/mL | MIC ([10]; Bacteroides fragilis strain 5): < 1 µg/mL | MIC ([10]; Bacteroides fragilis strain 6): < 1 µg/mL | MIC ([10]; Bacteroides fragilis strain 7): < 1 µg/mL | MIC ([10]; Bacteroides fragilis strain 8): < 1 µg/mL | MIC ([10]; Bacteroides fragilis strain 9): < 1 µg/mL | MIC ([10]; Bacteroides fragilis strain 10): < 1 µg/mL | MIC ([10]; Bacteroides fragilis strain 11): < 1 µg/mL | MIC ([10]; Bacteroides fragilis strain 12): < 1 µg/mL | MIC ([11]; Bacteroides thetaiotaomicron strain 1): < 1 µg/mL | MIC ([11]; Bacteroides thetaiotaomicron strain 2): < 1 µg/mL | MIC ([11]; Bacteroides thetaiotaomicron strain 3): 1 to 4 µg/mL (≈ 5.84 to 23.4 µM) | MIC ([11]; Bacteroides thetaiotaomicron strain 4): 1 to 4 µg/mL (≈ 5.84 to 23.4 µM) | MIC ([11]; Bacteroides thetaiotaomicron strain 5): 1 to 4 µg/mL (≈ 5.84 to 23.4 µM) | MIC ([11]; Bacteroides thetaiotaomicron strain 6): 1 to 4 µg/mL (≈ 5.84 to 23.4 µM) | MIC ([11]; Bacteroides thetaiotaomicron strain 7): < 1 µg/mL | MIC ([11]; Bacteroides thetaiotaomicron strain 8): 1 to 4 µg/mL (≈ 5.84 to 23.4 µM) | MIC ([11]; Bacteroides thetaiotaomicron strain 9): < 1 µg/mL | MIC ([11]; Bacteroides thetaiotaomicron strain 10): 1 to 4 µg/mL (≈ 5.84 to 23.4 µM) | MIC ([11]; Bacteroides thetaiotaomicron strain 11): 1 to 4 µg/mL (≈ 5.84 to 23.4 µM) | MIC ([12]; Prevotella bivia strain 1): 1 to 4 µg/mL (≈ 5.84 to 23.4 µM) | MIC ([12]; Prevotella bivia strain 2): 1 to 4 µg/mL (≈ 5.84 to 23.4 µM) | MIC ([12]; Prevotella bivia strain 3): 1 to 4 µg/mL (≈ 5.84 to 23.4 µM) | MIC ([12]; Prevotella bivia strain 4): 1 to 4 µg/mL (≈ 5.84 to 23.4 µM) | MIC ([12]; Prevotella bivia strain 5): 1 to 4 µg/mL (≈ 5.84 to 23.4 µM) | MIC ([12]; Prevotella bivia strain 6): 1 to 4 µg/mL (≈ 5.84 to 23.4 µM) | MIC ([12]; Prevotella bivia strain 7): 1 to 4 µg/mL (≈ 5.84 to 23.4 µM) | MIC ([12]; Prevotella bivia strain 8): 1 to 4 µg/mL (≈ 5.84 to 23.4 µM) | MIC ([12]; Prevotella bivia strain 9): 1 to 4 µg/mL (≈ 5.84 to 23.4 µM) | MIC ([12]; Prevotella bivia strain 10): 1 to 4 µg/mL (≈ 5.84 to 23.4 µM) | MIC ([13]; Prevotella melaninogenica strain 1): < 1 µg/mL | MIC ([13]; Prevotella melaninogenica strain 2): < 1 µg/mL | MIC ([13]; Prevotella melaninogenica strain 3): < 1 µg/mL | MIC ([13]; Prevotella melaninogenica strain 4): < 1 µg/mL | MIC ([13]; Prevotella melaninogenica strain 5): < 1 µg/mL | MIC ([13]; Prevotella melaninogenica strain 6): < 1 µg/mL | MIC ([13]; Prevotella melaninogenica strain 7): < 1 µg/mL | MIC ([13]; Prevotella melaninogenica strain 8): < 1 µg/mL | MIC ([13]; Prevotella melaninogenica strain 9): < 1 µg/mL | MIC ([13]; Prevotella melaninogenica strain 10): < 1 µg/mL | MIC ([13]; Prevotella melaninogenica strain 11): < 1 µg/mL
